Reference: ChEMBL document CHEMBL1759976, “Carbonic anhydrase inhibitors. Inhibition of the β-class enzymes from the fungal pathogens Candida albicans and Cryptococcus neoformans with branched aliphatic/aromatic carboxylates and their derivatives” (Bioorg Med Chem Lett, 2011)

Key:
[1] = Inhibition of Cryptococcus neoformans Can2 beta-carbonic anhydrase by stopped flow CO2 hydration assay
[2] = Inhibition of Candida albicans Nce103 beta-carbonic anhydrase by stopped flow CO2 hydration assay
Carbonic anhydrase 1 = Carbonic anhydrase 1 (Homo sapiens, UniProt P00915); test: Inhibition of human cytosolic carbonic anhydrase 1 by stopped flow CO2 hydration assay
Carbonic anhydrase 2 = Carbonic anhydrase 2 (Homo sapiens, UniProt P00918)

Sequence of Carbonic anhydrase 1 (P00915 whole entry): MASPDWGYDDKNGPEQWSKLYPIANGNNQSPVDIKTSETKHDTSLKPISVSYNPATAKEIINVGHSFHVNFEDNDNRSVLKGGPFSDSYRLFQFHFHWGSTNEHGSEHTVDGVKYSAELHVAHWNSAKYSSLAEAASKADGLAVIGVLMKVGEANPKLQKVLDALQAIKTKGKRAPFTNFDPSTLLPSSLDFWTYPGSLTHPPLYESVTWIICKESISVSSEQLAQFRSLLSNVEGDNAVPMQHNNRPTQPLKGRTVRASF

Compound	Ki [1]	Ki [2]	Ki (Carbonic anhydrase 1)	Ki (Carbonic anhydrase 2)
CCCCC(CC)C(N)=O (centres undefined)	0.39 µM	5.7 µM		
CCCC(C)C(=O)O (centres undefined)	10.2 µM	10.4 µM	310 µM	113 µM
COc1ccc(C(=O)NN)cc1	0.087 µM	0.81 µM	7.84 µM	5.75 µM
CCC(C)CC(=O)O (centres undefined)	34.9 µM	11.1 µM	104 µM	281 µM
CC(C)CCC(=O)O		2.14 µM		
CCCCC(C)C(=O)O (centres undefined)	3.23 µM	3.73 µM	380 µM	103 µM
CCC(C)CCC(=O)O (centres undefined)	0.8 µM	1.25 µM	420 µM	112 µM
CCCCC(CC)C(=O)O (centres undefined)	0.95 µM	43.1 µM	450 µM	93 µM
CCCCCC(C)C(=O)O (centres undefined)	39.3 µM	11.7 µM		110 µM
CCCCC(CC)CCC(=O)O (centres undefined)	41.2 µM	37.9 µM	380 µM	
CCCCCCC(CCCC)C(=O)O (centres undefined)		10.7 µM	101 µM	
O=C(O)c1ccc(F)cc1	0.13 µM	1.09 µM	7.39 µM	3.34 µM
O=C(O)c1ccc(I)cc1	5.46 µM	5.17 µM		
O=C(O)c1ccc([N+](=O)[O-])cc1	0.12 µM	4.85 µM	8.8 µM	8.56 µM
O=C(O)c1ccc(O)cc1	0.0095 µM	0.11 µM	7.61 µM	
COc1ccc(C(=O)O)cc1	0.0099 µM	0.15 µM	9.06 µM	8.03 µM
Nc1cccc(C(=O)O)c1	3.06 µM	3.4 µM	8.79 µM	8.63 µM
N#Cc1ccc(C(=O)O)cc1	0.14 µM	4.47 µM		
CC(=O)Nc1ccc(C(=O)[O-])cc1.[Na+]	0.32 µM	0.34 µM	4.04 µM	7.28 µM
O=C(O)c1ccc(CCl)cc1	3.65 µM	4.71 µM		

Compound	Ki [1]	Ki [2]	Ki (Carbonic anhydrase 1)	Ki (Carbonic anhydrase 2)
CN(C)c1ccc(C(=O)O)cc1	0.13 µM	5.2 µM	3.94 µM	3.33 µM
O=C(O)c1ccc(S(=O)(=O)N(Cl)Cl)cc1	0.12 µM	4.97 µM	3.88 µM	1.96 µM
CCCCC(CC)C(=O)OC (centres undefined)	0.74 µM	5.6 µM		
CCCCC(CC)C(=O)NO (centres undefined)	0.29 µM	3.05 µM		
CCCCC(CC)C(=O)NN (centres undefined)	0.23 µM	4.56 µM		
COc1ccc(C(=O)NO)cc1	0.071 µM	0.47 µM		
COc1ccc(C(N)=O)cc1	0.062 µM	0.54 µM	4.34 µM	2.18 µM
CCCCC(CC)C(=O)O (centres undefined) [2-ETHYLHEXANOIC ACID]			450 µM	93 µM
CC(=O)Nc1nnc(S(N)(=O)=O)s1 [ACETAZOLAMIDE]	0.01 µM	0.13 µM		
Nc1ccc(C(=O)O)cc1 [AMINOBENZOATE SODIUM]	0.12 µM	2.95 µM	8.4 µM	8.13 µM
COC(=O)c1ccc(OC)cc1 [METHYL 4-METHOXYBENZOATE]	0.067 µM	0.61 µM		
CC(=O)[O-].[Na+] [SODIUM ACETATE]			10.8 µM	
CCCC(=O)[O-].[Na+] [SODIUM BUTYRATE]			511 µM	
O=C[O-].[Na+] [SODIUM FORMATE]			1040 µM	
CC(C)C(=O)[O-].[Na+] [SODIUM ISOBUTYRATE]	3.81 µM	0.98 µM	120 µM	350 µM
CC(C)CC(=O)O [SODIUM ISOVALERATE]	0.91 µM	0.95 µM	300 µM	100 µM
CCC(=O)[O-].[Na+] [SODIUM PROPIONATE]			1010 µM	
CCCCC(=O)[O-].[Na+] [SODIUM VALERATE]			55.3 µM	
COc1ccc(C(=O)O)cc1 [p-ANISIC ACID]			9.06 µM	8.03 µM
